Data reported in ChEMBL document CHEMBL1133765, “QSAR model for drug human oral bioavailability” (J Med Chem, 2000).

Tests used:
physchem [1] = assay: physchem
[2] = octanol/water
clinical [3] = conditions: human, in vivo, po
[4] = octanol/water; remark: listed apart in the source
clinical [5] = conditions: human, in vivo, po; remark: listed apart in the source
[6] = octanol/water; remark: listed apart in the source
physchem [7] = conditions: octanol/water, pH 6.5
clinical [8] = conditions: human, in vivo, po; remark: listed apart in the source
[9] = octanol/water; remark: listed apart in the source
physchem [10] = conditions: octanol/water, pH 6.5, logD
[11] = Oral bioavailability in human; assay type: ADME, organism-based; conditions: in vivo
[12] = human, in vivo, po
[13] = Partition coefficient (logD6.5); assay type: physicochemical; conditions: octanol/water, pH 6.5

Row | Structure (SMILES) | pKa (physchem [1]) | bioavailability (clinical [5]) [%] | delta logD [6] | logD (physchem [7]) | also measured
1 | O=C(c1ccc(OCCN2CCCCC2)cc1)c1c(-c2ccc(O)cc2)sc2cc(O)ccc12 [RALOXIFENE] | 9 |  |  |  | logD ([2]; pH 6.5): 1.08; bioavailability (clinical [3]; F): < 20%; delta logD [4]: -0.9
2 | CCOc1ccc2ccccc2c1C(=O)N[C@@H]1C(=O)N2[C@@H]1SC(C)(C)[C@@H]2C(=O)O [NAFCILLIN] |  | 49 | 0.9 | -0.84 | 
3 | OCCN1CCN(CCCN2c3ccccc3Sc3ccc(Cl)cc32)CC1 [PERPHENAZINE] |  |  | -0.77 |  | bioavailability (clinical [8]): 79%; logD [9]: 2.88
4 | O=C(O)CCCc1ccc(N(CCCl)CCCl)cc1 [CHLORAMBUCIL] |  |  |  |  | logD [2]: 2.29; bioavailability (clinical [3]): > 80%; delta logD [4]: 0.82
5 | CC(NCCc1ccc(O)cc1)C(O)c1ccc(O)cc1 (configuration not stated) [RITODRINE] |  | 49 | -0.89 | -1 | 
6 | O=C1C(O)=C([C@H]2CC[C@H](c3ccc(Cl)cc3)CC2)C(=O)c2ccccc21 [ATOVAQUONE] |  |  |  |  | logD (physchem [10]): 3.96; bioavailability [11]: 49%
7 | CC[C@H]1[C@@H]2C[C@H]3[C@@H]4N(C)c5ccccc5[C@]45C[C@@H]([C@@H]2[C@H]5O)N3[C@@H]1O [AJMALINE] | 6.5 | 49 | -0.25 | 2.42 | 
8 | COc1ccc([C@@H]2Sc3ccccc3N(CCN(C)C)C(=O)[C@@H]2OC(C)=O)cc1 [DILTIAZEM] |  | 49 | -0.75 | 1.47 | 
9 | Nc1ccn([C@H]2CC[C@@H](CO)O2)c(=O)n1 (stereo in doubt; 1) [ZALCITABINE] |  |  |  |  | F [12]: < 20%; logD [2]: 3.2
10 | CN(Cc1cnc2nc(N)nc(N)c2n1)c1ccc(C(=O)N[C@@H](CCC(=O)O)C(=O)O)cc1 [METHOTREXATE] |  |  | 0.9 |  | bioavailability (clinical [8]): 79%; logD [9]: -4.55
11 | COc1ccc(C(=O)Nc2ccccc2CCC2CCCCN2C)cc1 (configuration not stated) [ENCAINIDE] | 10.2 | 49 | -0.9 | -0.34 | 
12 | CC(C)n1c(/C=C/C(O)CC(O)CC(=O)O)c(-c2ccc(F)cc2)c2ccccc21 (configuration not stated) [FLUVASTATIN] | 4.5 | 49 | 0.9 | 1.42 | 
13 | CC(C)(C)NCC(O)c1ccc(O)c(CO)c1 (configuration not stated) [ALBUTEROL] |  | 49 | -0.9 | -2.69 | 
14 | CC(C)(C)NCC(O)COc1cccc2c1CC(O)C(O)C2 (configuration not stated) [NADOLOL] | 9.7 | 49 | -0.9 |  | logD [9]: -2.46
15 | CC(C)NCC(O)COc1cccc2ccccc12 (configuration not stated) [PROPRANOLOL] |  | 49 | -0.9 |  | 
16 | CN(C)CCCN1c2ccccc2CCc2ccccc21 [IMIPRAMINE] |  | 49 |  |  | 
17 | NC(N)=Nc1nc(CSCCC(N)=NS(N)(=O)=O)cs1 [FAMOTIDINE] | 7.1 | 49 | -0.52 | -1.27 | 
18 | CCCC(=O)Nc1ccc(OCC(O)CNC(C)C)c(C(C)=O)c1 (configuration not stated) [ACEBUTOLOL] |  | 49 |  |  | 
19 | CN1CCN(CC(=O)N2c3ccccc3C(=O)Nc3cccnc32)CC1 [PIRENZEPINE] | 8.1 | 49 | -0.83 |  | logD [9]: -1.51
20 | CN1CCC[C@@H]1CCO[C@](C)(c1ccccc1)c1ccc(Cl)cc1 [CLEMASTINE] | 9.2 | 49 | -0.89 | 1.65 | 
21 | CCOC(=O)C1=C(C)NC(C)=C(C(=O)OC)C1c1cccc([N+](=O)[O-])c1 (configuration not stated) [NITRENDIPINE] |  |  |  |  | logD [2]: 0.97; bioavailability (clinical [3]; F): < 20%; delta logD [4]: 0
22 | CCC(C)(C)NCC(O)COc1ccccc1C(=O)CCc1ccccc1 (configuration not stated) [DIPRAFENONE] | 9.2 | 49 | -0.89 | 0.59 | 
23 | CNC(=C[N+](=O)[O-])NCCSCc1ccc(CN(C)C)o1 [RANITIDINE] |  |  |  |  | logD ([2]; pH 6.5): -1.44; bioavailability (clinical [3]; F): 79%; delta logD [4]: -0.84
24 | NS(=O)(=O)c1cc2c(cc1Cl)N=CNS2(=O)=O [CHLOROTHIAZIDE] | 6.7 | 49 | 0.57 | -0.45 | 
25 | Cc1onc(-c2ccccc2)c1C(=O)N[C@@H]1C(=O)N2[C@@H]1SC(C)(C)[C@@H]2C(=O)O [OXACILLIN] |  | 49 | 0.9 | -1.32 | 
26 | CSc1ccc2c(c1)N(CCC1CCCCN1C)c1ccccc1S2 (configuration not stated) [THIORIDAZINE] |  | 49 | -0.9 | 2.9 | 
27 | OCCN1CCN(CC/C=C2/c3ccccc3Sc3ccc(Cl)cc32)CC1 [ZUCLOPENTHIXOL] | 8.1 |  | -0.83 | 2.71 | bioavailability (clinical [8]): 79%

Row | Structure (SMILES) | pKa (physchem [1]) | bioavailability (clinical [5]) [%] | delta logD [6] | logD (physchem [7]) | also measured
28 | Cc1ncc2n1-c1ccc(Cl)cc1C(c1ccccc1F)=NC2 [MIDAZOLAM] | 6.1 | 49 | -0.14 | 1.37 | 
29 | CC(CCc1ccccc1)NCC(O)c1ccc(O)c(C(N)=O)c1 (configuration not stated) [LABETALOL] | 9.3 | 49 | -0.9 | 0.35 | 
30 | Nc1c(CC(=O)O)cccc1C(=O)c1ccc(Br)cc1 [BROMFENAC] | 4.3 |  | 0.9 | 1.39 | bioavailability (clinical [8]): 79%
31 | CC[C@@H](CO)NCCN[C@@H](CC)CO [ETHAMBUTOL] | 9.5 |  | -0.9 |  | bioavailability (clinical [8]): 79%; logD [9]: -4.02
32 | Cc1onc(-c2c(Cl)cccc2Cl)c1C(=O)N[C@@H]1C(=O)N2[C@@H]1SC(C)(C)[C@@H]2C(=O)O [DICLOXACILLIN] | 2.8 |  | 0.9 | -0.79 | bioavailability (clinical [8]): 79%
33 | COc1ccc2c(c1)N(C[C@H](C)CN(C)C)c1ccccc1S2 [LEVOMEPROMAZINE] | 9.2 |  | -0.89 | 1.98 | bioavailability (clinical [8]): 79%
34 | Cc1cc2c(s1)Nc1ccccc1N=C2N1CCN(C)CC1 [OLANZAPINE] | 8 |  | -0.81 | -0.02 | bioavailability (clinical [8]): 79%
35 | COc1cccc(C2(O)CCCCC2CN(C)C)c1 (configuration not stated) [TRAMADOL] | 9.4 |  | -0.9 | 0.85 | bioavailability (clinical [8]): 79%
36 | OCCN1CCN(CCC=C2c3ccccc3Sc3ccc(C(F)(F)F)cc32)CC1 | 8.1 |  | -0.83 | 2.88 | bioavailability (clinical [8]): 79%
37 | CN(C)CCC=C1c2ccccc2COc2ccccc21 [DOXEPIN] | 8 | 49 | -0.82 | 1.55 | 
38 | Nc1ccn([C@H]2CC[C@@H](CO)O2)c(=O)n1 (stereo in doubt; 232) [ZALCITABINE] |  |  |  |  | F [12]: > 80%; delta logD [4]: 0
39 | CC(CN1c2ccccc2Sc2ccccc21)N(C)C (configuration not stated) [PROMETHAZINE] |  | 49 | -0.89 | 2.21 | 
40 | O=C(NC1CCN(CCc2c[nH]c3ccccc23)CC1)c1ccccc1 [INDORAMIN] | 7.7 | 49 | -0.75 | 1.56 | 
41 | COc1cc2nc(N3CCN(C(=O)C4COc5ccccc5O4)CC3)nc(N)c2cc1OC (configuration not stated) [DOXAZOSIN] | 6.5 |  | -0.25 | 1.14 | bioavailability (clinical [8]): 79%
42 | C=CCOc1ccccc1OCC(O)CNC(C)C (configuration not stated) [OXPRENOLOL] | 9.3 | 49 | -0.9 |  | logD ([9]; pH 6.5): -0.72
43 | CO/C(O)=C1\C(C)=NC(C)=C(C(=O)OC(C)C)C1c1cccc2nonc12 (configuration not stated) |  |  | 0 |  | logD [13]: 1.72; bioavailability (clinical [3]; F): ≤ 20%
44 | CC(C)NC[C@H](O)COc1ccc(O)cc1 [PRENALTEROL] | 9.2 | 49 | -0.89 | -1.61 | 
45 | COc1ccc2c3c1O[C@H]1[C@@H](O)C=C[C@H]4[C@@H](C2)N(C)CC[C@@]341 [CODEINE] |  |  |  |  | logD [2]: -0.28; bioavailability (clinical [3]): 79%; delta logD [4]: -0.8
46 | CCOC(=O)Nc1ccc2c(c1)N(C(=O)CCN1CCOCC1)c1ccccc1S2 [MORICIZINE] | 6.4 | 49 | -0.21 | 2.73 | 
47 | CN1CCC[C@H]1c1cccnc1 [NICOTINE] |  | 49 | -0.82 | -0.34 | 
48 | COc1ccccc1OCCNCC(O)COc1cccc2[nH]c3ccccc3c12 (configuration not stated) [CARVEDILOL] | 9.3 | 49 | -0.9 | 1.31 | 
49 | COc1cc(N)c(Cl)cc1C(=O)NC1CCN(CCCOc2ccc(F)cc2)CC1OC (configuration not stated) [CISAPRIDE] | 7.7 | 49 | -0.75 | 1.79 | 
50 | CCC(=O)O[C@](Cc1ccccc1)(c1ccccc1)[C@H](C)CN(C)C [PROPOXYPHENE] |  | 49 | -0.89 | 2.2 | 
51 | CC(C)NCC(O)COc1ccc(CCOCC2CC2)cc1 (configuration not stated) [BETAXOLOL] | 9.4 |  |  |  | logD ([2]; pH 6.5): -0.07; bioavailability (clinical [3]; F): > 80%; delta logD [4]: -0.9
52 | COc1ccc(CCNCC(O)COc2cccc(C)c2)cc1OC (configuration not stated) [BEVANTOLOL] | 8.4 |  | -0.87 | 1.11 | bioavailability (clinical [8]): 79%
53 | O=C(NCCN1CCOCC1)c1ccc(Cl)cc1 [MOCLOBEMIDE] | 6.2 |  | -0.15 | 1.26 | bioavailability (clinical [8]): 79%
